This note sets out measurements from patent EP3797781A1, “USE OF EC-7072 AND SYNERGIC COMPOSITIONS THEREOF IN TREATMENT OF CHRONIC LYMPHOCYTIC LEUKEMIA” (priority 2019, dated 2021).

One data set concerns primary CLL cells. Put plainly: Leukemia cell viability and apoptosis by DiOC6(3)/PI staining and flow cytometry. The class given is cell-based, human. The method, then: (§1) Cell viability and apoptosis were evaluated by double-staining with the mitochondrial inner transmembrane potential (ΔΨm)-sensitive dye DiOC6(3) (3,3'-dihexyloxacarbocyanine iodide; Sigma-Aldrich) and the exclusion dye propidium iodide (PI; Immunostep), allowing identification of apoptotic [DiOC6(3)^low PI^-] and dead [PI^+] cells as per Proc. Natl. Acad. Sci. U.S.A. (2014) 111(8):3020-3025 and Methods Mol. Biol. (2016) 1419:1-16. Briefly, PBMCs were resuspended in culture medium containing 20 nM DiOC6(3) and incubated for 30 minutes at 37 °C. Then, PI (1 µg/mL) was added and cells were further incubated for 10 minutes at room temperature (RT). Cells were analyzed by flow cytometry considering DiOC6(3)^+PI^- cells as viable. In some experiments, apoptosis was evaluated by staining with Annexin V/PI. Thus, PBMCs were incubated in Annexin V binding buffer containing 5 µg/mL Annexin V-FITC (Biolegend) for 15 minutes at RT and PI (1 µg/mL) was subsequently added. Data were normalized to the untreated control as a percentage. Only samples with at least 60% of viable cells (DiOC6(3)^+; Annexin V^-) in the control (DMSO) condition were employed in this study.
The in vitro cytotoxic activity of EC-7072 against primary CLL cells was assessed by: • (i) incubating PBMCs isolated from patients with CLL (n = 13) following treatment with increasing concentrations of EC-7072 (0 - 400 nM) for 24 hours. Numbers of leukemia cells were evaluated by flow cytometry and normalized to their respective control (DMSO) condition for each individual patient to obtain percentage of leukemia cells (Figure 1A); • (ii) incubating PBMCs from patients with CLL (n = 10) with or without EC-7072 (100-400 nM) for 24 hours. Viability of leukemia cells was determined by cytofluorometric assessment of DiOC6(3)/PI staining and normalized to their respective control condition to obtain percentage viability (Figure 1B); • (iii) incubating PBMCs from patients with CLL (n = 10) with increasing concentrations of EC-7072 (0 - 400 nM) for 24 hours. Apoptosis of leukemia cells was determined by DiOC6(3)/PI staining and flow cytometry to obtain the mean percentages of apoptotic [DiOC6(3)^low PI^-] and dead [PI^+] cells (Figure 1C); • (iv) incubating PBMCs from patients with CLL (n = 10) with or without EC-7072 (200 nM) for 12 to 72 hours. Viability of leukemia cells was determined by DiOC6(3)/PI staining and normalized to their respective control condition to obtain percentage viability (Figure 1D); • (v) incubating PBMCs from patients with CLL (n = 24) with MTA (200 nM) or EC-7072 (200 nM) for 24 hours. Leukemia cell death was determined by DiOC6(3)/PI staining and flow cytometry to obtain the mean percentages of apoptotic [DiOC6(3)^low PI^-] and dead [PI^+] cells (Figure 1E); • (vi) incubating PBMCs from patients with CLL (n = 63) or healthy donors (n = 20) with or without EC-7072 (200 nM) for 24 hours. Viability of leukemia cells and healthy B cells was evaluated by DiOC6(3)/PI staining and normalized to their respective control condition to obtain percentage viability (Figure 1F); • (vii) incubating PBMCs from patients with CLL (n = 62) following treatment with EC-7072 (200 nM) for 24 hours and obtaining a cytogenetic profile for each patient. Viability of leukemia cells was evaluated by DiOC6(3)/PI staining and normalized to their respective control (DMSO) condition for each individual patient to obtain the percentage of viable [DiOC6(3)^+] cells (Figure 1G); • (viii) incubating PBMCs from patients with CLL (n = 59) following treatment with EC-7072 (200 nM) for 24 hours and determining mutational status of IgHV for each patient. Viability of leukemia cells was evaluated by DiOC6(3)/PI staining and normalized to their respective control (DMSO) condition for each individual patient to obtain the percentage of viable [DiOC6(3)^+] cells (Figure 1H). […]

A further data set relates to T cells (CD3^+CD56^-). Put plainly: T cell numbers, viability and apoptosis in PBMCs (flow cytometry, DiOC6(3)/PI staining). The class given is cell-based, human. The method, then: To evaluate absolute cell numbers, an equal volume of PKH26 reference microbeads (Sigma-Aldrich) was added to each sample after staining for immune subset identification. Microbeads (5x10^3) were acquired by flow cytometry and absolute numbers of each immune population within the sample were calculated. Normalized percentage values were calculated considering the control (DMSO)-treated cells as 100%.
as §1
The effect of EC-7072 toward healthy immune subsets, T lymphocytes and natural killer (NK) cells, which are chronically exposed to leukemia cells in the peripheral blood of patients with CLL was assessed by: • (i) incubating PBMCs isolated from patients with CLL (n = 10) following treatment with increasing concentrations of EC-7072 (0 - 400 nM) for 24 hours. Numbers of T cells (CD3^+CD56^-) (Figure 2A) and NK cells (CD3^-CD56^+) (Figure 2B) were evaluated by flow cytometry and normalized to their respective control (DMSO) condition for each individual patient to obtain percentage of relative number of T cells and NK cells, respectively; • (ii) incubating PBMCs isolated from patients with CLL (n = 6 - 10) following treatment with increasing concentrations of EC-7072 (0 - 400 nM) for 24 hours. Viability of immune subsets (leukemia cells, T cells and NK cells) was determined by cytofluorometric assessment of DiOC6(3)/PI staining and normalized to their respective control (DMSO) condition for each individual patient to obtain percentage of viable [DiOC6(3)^+] cells (Figures 2C and 2D); • (iii) incubating PBMCs isolated from patients with CLL (n = 11) following treatment with DMSO or EC-7072 (200 nM) for 24 hours. Numbers of CD4^+ cells (Figure 2E) and CD8^+ T cells (Figure 2F) were evaluated by flow cytometry and normalized to their respective control (DMSO) condition for each individual experiment; • (iv) incubating PBMCs isolated from healthy donors (n = 15) following treatment with EC-7072 (200 nM) for 24 hours. […]
Background: Flow cytometry measures light scatter and fluorescence of single cells or particles in a stream.

For the compound `CO[C@@H]([C@@H]1Cc2cc3cc(O[C@H]4C[C@@H](O[C@H]5C[C@@H](O)[C@H](O)[C@@H](C)O5)[C@H](O)[C@@H](C)O4)c(C)c(O)c3c(O)c2C(=O)[C@H]1O[C@H]1C[C@@H](O[C@H]2C[C@@H](O[C@H]3C[C@](C)(O)[C@H](O)[C@@H](C)O3)[C@@H](O)[C@@H](C)O2)[C@H](O)[C@@H](C)O1)[C@@H](O)C(C)=O` [EC-7072, mithramycin SK], in the data set on primary CLL cells (200 nM, 6 hours, PBMCs from patients with CLL (n = 8), Figure 6C), the “cell death at 6 hours” value is “not triggering detectable cell death”. Besides, the “CLL cell death at 8 hours” value in the data set with primary CLL cells (200 nM, 8 hours, n = 8, Figure 7K) is given as “does not result in noticeable CLL cell death”. Besides, the “ratio of apoptosis in CLL cells relative to CLL cell death” value in the data set with primary CLL cells (200 nM, 24 hours, PBMCs from patients with CLL (n = 6), exception: EC-14041, Figure 2P) is reported as “higher ratio of apoptosis in CLL cells relative to CLL cell death than other mithralogs”. Further, the “antileukemic activity (apoptotic [DiOC6(3)^low PI^-] and dead [PI^+] cells)” value in the data set on primary CLL cells (200 nM, 24 hours, PBMCs from patients with CLL (n = 24), compared with MTA 200 nM, Figure 1E) is listed as “comparable to that of MTA”. In addition, the “antileukemic activity on isolated leukemia cells versus PBMCs (apoptotic and dead cells)” value in the data set on primary CLL cells (200 nM, 24 hours, isolated leukemia cells from patients with CLL (n = 24)) was “mimicked”. Further, the “viability of leukemia cells by mutational status of IgHV” value in the data set on primary CLL cells (200 nM, 24 hours, n = 59, Figure 1H) was “did not significantly affect the sensitivity”. Further, the “viability of leukemia cells by cytogenetic profile” value with primary CLL cells (200 nM, 24 hours, n = 62, patients with cytogenetic aberrations incl. del(17p) or del(11q), Figure 1G) is “no differences in the sensitivity”. Also, the “viability of leukemia cells” value in the data set on primary CLL cells (100 - 400 nM for 24 hours, 200 nM for 12 to 72 hours, PBMCs from patients with CLL (n = 10), dose- and time-dependent, Figures 1B-1D) is “significantly decreased”. Besides, the “leukemia cell survival upon BCR stimulation with anti-IgM antibodies” value with primary CLL cells (EC-7072 200 nM in combination with α-IgM (10 µg/mL), 24 hours, n = 15) is on record as “significantly rescued leukemia cell survival”. For the same compound, in the data set on primary CLL cells (EC-7072 200 nM with CD40L (100 ng/mL), BAFF (50 ng/mL), TNF-α (40 ng/mL), IL-6 (40 ng/mL) or IL-4 (40 ng/mL), 24 hours, n = 7), the “leukemia cell death in the presence of microenvironment-derived soluble factors” value is on record as “none of the soluble factors tested significantly affected the leukemia cell death”. Besides, in the data set with primary CLL cells (co-culture with OP9 cells 72 hours, EC-7072 200 nM for the last 24 hours, n = 7), the “leukemia cell viability in co-culture with OP9 stromal cells” value was “did not enhance leukemia cell viability”. In addition, the “percentage viability of leukemia cells, comparison of mithralogs” value with primary CLL cells (each at 200 nM, 24 hours, PBMCs from patients with CLL (n = 10), Figure 2M) is given as “second only to the mithralog EC-7073”. In addition, the “CLL cell viability compared with idelalisib or fludarabine” value with primary CLL cells (range of doses, EC-7072 and fludarabine 24 hours, idelalisib 48 hours, n = 4 - 6, Figure 4A) is listed as “reduced CLL cell viability to a greater extent than idelalisib or fludarabine”. Moreover, the “T cell numbers and viability” value in the data set on T cells (CD3^+CD56^-) (0 - 400 nM, 24 hours, PBMCs from patients with CLL) is listed as “negligible effects”. Moreover, the “ratio of apoptosis to cell death in T cells” value in the data set with T cells (CD3^+CD56^-) (200 nM, 24 hours, PBMCs from healthy donors (n = 4), Figure 2Q) is reported as “comparable to that induced by EC-7073”. In the data set on T cells (CD3^+CD56^-) (200 nM, 24 hours, PBMCs from healthy donors (n = 10), Figure 2N), the “viability of T cells, comparison of mithralogs” value is recorded as “not exhibit toxicity”. For the same compound, the “cell numbers and viability of T lymphocytes” value in the data set with T cells (CD3^+CD56^-) (200 nM, 24 hours, PBMCs from healthy donors (n = 15), compared with PBMCs from patients with CLL) was “comparable effects”. Also, in the data set with T cells (CD3^+CD56^-) (EC-7072 200 nM 24 hours vs fludarabine 10 µM 24 hours, PBMCs from patients with CLL (n = 6 - 8), Figure 4F), the “toxicity against T cells compared with fludarabine” value is recorded as “significantly less toxic than fludarabine”.
